This test deals with 5-hydroxytryptamine receptor 4 (Rattus norvegicus, UniProt Q62758). The test can be described thus: Displacement of [3H]GR113808 from 5-HT4 receptor in rat striatal membranes after 30 mins by liquid scintillation spectrometric analysis. It is filed as cell membranes, Striatum, Membrane.

Molecules are shown by their SMILES.

5-hydroxytryptamine receptor 4, sequence (Q62758 whole entry): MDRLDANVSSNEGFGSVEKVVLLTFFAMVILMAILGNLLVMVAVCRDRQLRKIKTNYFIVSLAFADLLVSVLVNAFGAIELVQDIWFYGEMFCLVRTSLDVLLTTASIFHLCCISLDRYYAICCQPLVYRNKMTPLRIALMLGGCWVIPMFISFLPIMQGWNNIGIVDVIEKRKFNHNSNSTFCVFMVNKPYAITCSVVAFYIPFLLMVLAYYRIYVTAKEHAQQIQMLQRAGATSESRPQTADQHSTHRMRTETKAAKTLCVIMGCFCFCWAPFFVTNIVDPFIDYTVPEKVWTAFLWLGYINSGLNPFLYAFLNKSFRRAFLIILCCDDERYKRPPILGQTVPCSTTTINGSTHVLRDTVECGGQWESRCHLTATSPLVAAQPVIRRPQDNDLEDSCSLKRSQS

In the case of `CCCCN1CCC(CNC(=S)c2cccc3[nH]cnc23)CC1`, the affinity corresponds to a Ki of 150 pM.

For `CCCCN1CCC(CNC(=S)c2cc(Cl)cc3[nH]cnc23)CC1`, the Ki was found to be 81 pM.
